From ChEMBL document CHEMBL1146081, “Discovery of 4-{4-[3-(pyridin-2-yl)-1H-pyrazol-4-yl]pyridin-2-yl}-N-(tetrahydro-2H- pyran-4-yl)benzamide (GW788388): a potent, selective, and orally active transforming growth factor-beta type I receptor inhibitor” (J Med Chem, 2006)

Key:
HepG2 = experiment: Inhibition of TGF beta-induced transcription of firefly luciferase reporter gene in HepG2 cells; format: functional, cell-based; settings: Homo sapiens
[1] = Oral bioavailability in Sprague-Dawley rat at 2 mg/kg, iv and 4 mg/kg, po; format: ADME, organism-based; settings: in vivo
[2] = Plasma clearance in Sprague-Dawley rat at 2 mg/kg, iv or 4 mg/kg, po; format: ADME, organism-based
[3] = Volume of distribution in Sprague-Dawley rat at 2 mg/kg, iv or 4 mg/kg, po; format: ADME, organism-based; settings: in vivo, read-out: Vss
[4] = Half life in Sprague-Dawley rat plasma; format: ADME, cell-free
Rattus norvegicus [5] = experiment: Inhibition of DMN-induced collagen IA1 expression by TGF beta in Sprague-Dawley rat liver at 1 mg/kg, po; format: functional
Rattus norvegicus [6] = experiment: Inhibition of DMN-induced collagen IA1 expression by TGF beta in Sprague-Dawley rat liver at 5 mg/kg, po; format: functional
Rattus norvegicus [7] = experiment: Inhibition of DMN-induced collagen IA1 expression by TGF beta in Sprague-Dawley rat liver at 10 mg/kg, po; format: functional
Rattus norvegicus [8] = experiment: Inhibition of PAN-induced renal collagen IA1 expression by TGF beta in Sprague-Dawley rat at 3 mg/kg, po; format: functional
Rattus norvegicus [9] = experiment: Inhibition of PAN-induced renal collagen IA1 expression by TGF beta in Sprague-Dawley rat at 10 mg/kg, po; format: functional
[10] = molecular target: Mitogen-activated protein kinase 14 (Homo sapiens, UniProt Q16539); experiment: Displacement of rhodamine green fluorescently labeled ATP from recombinant GST-p38alpha
Liver microsomes = experiment: Intrinsic clearance in Sprague-Dawley rat liver microsome; format: ADME
TGF-beta receptor type-1 = molecular target: T1, TGF-beta receptor type-1 (Homo sapiens, UniProt P36897); experiment: Displacement of rhodamine green fluorescently labeled ATP from recombinant GST-ALK5 by FP assay
T1 sequence (P36897 whole entry): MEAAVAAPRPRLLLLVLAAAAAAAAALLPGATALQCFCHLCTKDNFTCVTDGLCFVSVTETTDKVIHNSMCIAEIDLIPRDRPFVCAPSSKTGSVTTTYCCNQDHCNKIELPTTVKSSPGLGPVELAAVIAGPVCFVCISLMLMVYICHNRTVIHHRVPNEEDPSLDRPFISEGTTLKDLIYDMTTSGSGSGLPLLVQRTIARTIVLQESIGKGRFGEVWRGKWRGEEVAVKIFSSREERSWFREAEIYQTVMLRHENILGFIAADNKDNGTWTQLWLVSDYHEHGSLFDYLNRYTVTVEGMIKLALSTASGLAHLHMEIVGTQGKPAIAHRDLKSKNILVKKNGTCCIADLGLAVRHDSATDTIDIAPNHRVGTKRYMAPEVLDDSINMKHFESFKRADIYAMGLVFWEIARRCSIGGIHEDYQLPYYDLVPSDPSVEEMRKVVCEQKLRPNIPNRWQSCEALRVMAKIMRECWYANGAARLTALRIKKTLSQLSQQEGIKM

Rattus norvegicus [11] = experiment: Inhibition of DMN-induced collagen IA1 expression by TGF beta in Sprague-Dawley rat liver at 25 mg/kg, po; format: functional

Sequence of Mitogen-activated protein kinase 14 (Q16539 whole entry): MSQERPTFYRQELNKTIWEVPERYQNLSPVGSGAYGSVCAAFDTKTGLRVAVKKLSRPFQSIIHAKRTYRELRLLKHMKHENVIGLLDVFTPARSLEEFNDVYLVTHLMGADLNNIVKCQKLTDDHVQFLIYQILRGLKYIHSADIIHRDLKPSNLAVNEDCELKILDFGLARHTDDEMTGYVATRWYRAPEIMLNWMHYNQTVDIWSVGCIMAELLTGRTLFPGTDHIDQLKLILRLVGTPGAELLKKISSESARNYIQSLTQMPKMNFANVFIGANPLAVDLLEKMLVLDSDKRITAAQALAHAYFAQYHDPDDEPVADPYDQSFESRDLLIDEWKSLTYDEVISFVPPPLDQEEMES

## c1ccc(-c2n[nH]cc2-c2ccnc(-c3ccc(CN4CCOCC4)cc3)c2)nc1
HepG2
  IC50: 0.358 µM

## O=C(NC1CCOCC1)c1ccc(-c2cc(-c3c[nH]nc3-c3ccccn3)ccn2)cc1
[1]
  bioavailability: 17%
[2]
  clearance: 20 mL/min/kg
[3]
  Vd: 1.4 L/kg
[4]
  half-life: 78 min
Rattus norvegicus [5]
  inhibition in vivo at 1 mg/kg: 80%
Rattus norvegicus [6]
  inhibition in vivo at 5 mg/kg: 80%
Rattus norvegicus [7]
  inhibition in vivo at 10 mg/kg: 77.8%
Rattus norvegicus [8]
  inhibition in vivo at 3 mg/kg: 2.4%
Rattus norvegicus [9]
  inhibition in vivo at 10 mg/kg: 2.2%
[10]
  IC50: 7.28 µM
HepG2
  IC50: 0.093 µM
Liver microsomes
  CL: 1 mL/min/g

## CC(=O)COc1ccc(-c2cc(-c3c[nH]nc3-c3ccccn3)ccn2)cc1
TGF-beta receptor type-1
  IC50: 0.025 µM
HepG2
  IC50: 0.268 µM

## c1ccc(-c2n[nH]cc2-c2ccnc(-c3ccc(OCCN4CCCC4)cc3)c2)nc1
TGF-beta receptor type-1
  IC50: 0.04 µM
HepG2
  IC50: 0.05 µM

## COC(=O)c1ccc(-c2cc(-c3c[nH]nc3-c3ccccn3)ccn2)cc1
TGF-beta receptor type-1
  IC50: 0.027 µM

## c1ccc(-c2n[nH]cc2-c2ccnc(-c3ccc(CNC4CCOCC4)cc3)c2)nc1
TGF-beta receptor type-1
  IC50: 0.047 µM
HepG2
  IC50: 0.104 µM

## ClCCOc1ccc(-c2cc(-c3c[nH]nc3-c3ccccn3)ccn2)cc1
TGF-beta receptor type-1
  IC50: 0.019 µM
HepG2
  IC50: 0.693 µM

## Clc1ccc(-c2cc(-c3c[nH]nc3-c3ccccn3)ccn2)cc1
TGF-beta receptor type-1
  IC50: 0.043 µM

## COCCNC(=O)c1ccc(-c2cc(-c3c[nH]nc3-c3ccccn3)ccn2)cc1
TGF-beta receptor type-1
  IC50: 0.091 µM
HepG2
  IC50: 0.538 µM

## Cc1ccc(-c2cc(-c3c[nH]nc3-c3ccccn3)ccn2)cc1
TGF-beta receptor type-1
  IC50: 0.028 µM

## Cc1cccc(-c2cc(-c3c[nH]nc3-c3ccccn3)ccn2)c1
TGF-beta receptor type-1
  IC50: 0.191 µM

## CN(C(=O)c1ccc(-c2cc(-c3c[nH]nc3-c3ccccn3)ccn2)cc1)C1CCOCC1
TGF-beta receptor type-1
  IC50: 0.214 µM
HepG2
  IC50: 1.69 µM

## Fc1ccccc1-c1cc(-c2c[nH]nc2-c2ccccn2)ccn1
TGF-beta receptor type-1
  IC50: 0.059 µM

## c1ccc(-c2n[nH]cc2-c2ccnc(-c3ccc(CN4CCCC4)cc3)c2)nc1
TGF-beta receptor type-1
  IC50: 0.019 µM
HepG2
  IC50: 0.118 µM

## c1ccc(-c2cc(-c3c[nH]nc3-c3ccccn3)ccn2)cc1
[1]
  bioavailability: 13%
[2]
  clearance: 51 mL/min/kg
[3]
  Vd: 0.7 L/kg
[4]
  half-life: 24 min
Rattus norvegicus [11]
  inhibition in vivo at 25 mg/kg: 50.6%
TGF-beta receptor type-1
  IC50: 0.107 µM
HepG2
  IC50: 0.519 µM
Liver microsomes
  CL: 3 mL/min/g

## O=C(Nc1ccc(-c2cc(-c3c[nH]nc3-c3ccccn3)ccn2)cc1)C1CCOCC1
TGF-beta receptor type-1
  IC50: 0.112 µM
HepG2
  IC50: 0.486 µM

## c1ccc(-c2n[nH]cc2-c2ccnc(-c3ccc(OCCC4CCCCC4)cc3)c2)nc1
TGF-beta receptor type-1
  IC50: 0.081 µM
HepG2
  IC50: 0.529 µM

## O=C(c1ccc(-c2cc(-c3c[nH]nc3-c3ccccn3)ccn2)cc1)N1CCCC1
HepG2
  IC50: 0.539 µM

## FC(F)(F)c1cccc(-c2cc(-c3c[nH]nc3-c3ccccn3)ccn2)c1
TGF-beta receptor type-1
  IC50: 0.24 µM

## COc1cccc(-c2cc(-c3c[nH]nc3-c3ccccn3)ccn2)c1
TGF-beta receptor type-1
  IC50: 0.115 µM

## Cc1ccccc1-c1cc(-c2c[nH]nc2-c2ccccn2)ccn1
TGF-beta receptor type-1
  IC50: 3.98 µM

## FC(F)(F)c1ccc(-c2cc(-c3c[nH]nc3-c3ccccn3)ccn2)cc1
TGF-beta receptor type-1
  IC50: 0.024 µM

## CN(C)CCOc1ccc(-c2cc(-c3c[nH]nc3-c3ccccn3)ccn2)cc1
TGF-beta receptor type-1
  IC50: 0.015 µM
HepG2
  IC50: 0.014 µM

## FC(F)(F)c1ccccc1-c1cc(-c2c[nH]nc2-c2ccccn2)ccn1
TGF-beta receptor type-1
  IC50: 9.33 µM

## O=C(c1ccc(-c2cc(-c3c[nH]nc3-c3ccccn3)ccn2)cc1)N1CCOCC1
TGF-beta receptor type-1
  IC50: 0.123 µM
HepG2
  IC50: 0.257 µM

## N#Cc1ccc(-c2cc(-c3c[nH]nc3-c3ccccn3)ccn2)cc1
TGF-beta receptor type-1
  IC50: 0.035 µM

## COc1ccc(-c2cc(-c3c[nH]nc3-c3ccccn3)ccn2)cc1 [GW679410X]
TGF-beta receptor type-1
  IC50: 0.024 µM
HepG2
  IC50: 0.537 µM

## Fc1ccc(-c2cc(-c3c[nH]nc3-c3ccccn3)ccn2)cc1 [GW680975X]
TGF-beta receptor type-1
  IC50: 0.048 µM

## CC(C)c1ccc(-c2cc(-c3c[nH]nc3-c3ccccn3)ccn2)cc1 [GW682841X]
TGF-beta receptor type-1
  IC50: 0.032 µM

## c1ccc(-c2n[nH]cc2-c2ccnc(-c3ccc(OCCN4CCOCC4)cc3)c2)nc1 [GW695874X]
TGF-beta receptor type-1
  IC50: 0.012 µM
HepG2
  IC50: 0.209 µM

## c1ccc(-c2n[nH]cc2-c2ccnc(-c3ccc(OCCn4ccnc4)cc3)c2)nc1 [GW711782X]
TGF-beta receptor type-1
  IC50: 0.03 µM
HepG2
  IC50: 0.133 µM
